Data: patent publication US9227935B2, “Piperidine/piperazine derivatives” (Janssen Pharmaceutica N.V., priority 2007, dated 2016)

Target: T1, human DGAT1 (Homo sapiens, UniProt O75907)
T1 construct: FLAG (N); made in house; host or cells: SF9 insect cells (baculovirus, pFastBac); total cell membranes used as the enzyme source
T1 sequence (O75907 1-488): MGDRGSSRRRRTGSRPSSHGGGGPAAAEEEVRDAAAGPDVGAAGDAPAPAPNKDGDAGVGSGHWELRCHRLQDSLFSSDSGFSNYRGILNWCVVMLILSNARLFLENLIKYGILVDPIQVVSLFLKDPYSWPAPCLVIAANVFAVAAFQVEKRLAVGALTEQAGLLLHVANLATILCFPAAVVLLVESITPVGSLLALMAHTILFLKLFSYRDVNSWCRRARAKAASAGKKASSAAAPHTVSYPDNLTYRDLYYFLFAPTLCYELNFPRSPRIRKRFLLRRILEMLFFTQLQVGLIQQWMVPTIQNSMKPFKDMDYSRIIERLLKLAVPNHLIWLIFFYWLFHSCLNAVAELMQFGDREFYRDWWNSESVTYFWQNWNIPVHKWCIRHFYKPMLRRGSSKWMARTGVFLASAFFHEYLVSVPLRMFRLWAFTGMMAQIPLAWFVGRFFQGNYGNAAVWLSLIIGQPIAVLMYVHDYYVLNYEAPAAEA
Assay: DGAT1 FlashPlate inhibition assay with DGAT1 membrane preparations
Format: biochemical
Conditions: IC50 values expressed in M; pIC50 = -logIC50; inhibition of DGAT1 activity
From the text: The inhibiting activity of the present compounds on DGAT1 activity was screened in a single well procedure assay using DGAT1 comprising membrane preparations and DGAT1 substrate comprising micelles and determining formed radio-active triacylglycerol coming in close proximity of a flashplate surface by radioluminescence.
Said assay is described in full detail in WO2006/067071, the content of which is incorporated herein by reference.
By DGAT1 activity is meant the transfer of coenzyme A activated fatty acids to the 3-position of 1,2-diacylglycerols, thus forming a triglyceride molecule, by enzyme DGAT1.
human DGAT1 (NM012079.2) was cloned into the pFastBac vector, containing translation start, a FLAG-tag at the N-terminus as described in literature and a viral Kozak sequence (AAX) preceding the ATG to improve expression in insect cells. Expression was done as described in literature (Cases, S., Smith, S. J., Zheng, Y., Myers H. M., Lear, S. R., Sande, E., Novak, S., Collins, C., Welch, C. B., Lusis, A. J., Erickson, S. K. and Farese, R. V. (1998) Proc. Natl. Acad. Sci. USA 95, 13018-13023.) using SF9 cells.
72 h transfected SF9 cells were collected by centrifugation (13000 rpm-15 min-4° C.) and lysed in 2×500 ml lysis buffer (0.1M Sucrose, 50 mM KCl, 40 mM KH2PO4, 30 mM EDTA pH 7.2. Cells were homogenized by cell disruptor. After centrifugation 1380 rpm-15 min-4° C. (SN discarded), pellet was resuspended in 500 ml lysis buffer and total cell membranes collected by ultracentrifugation at 34000 rpm (100 000 g) for 60 min (4° C.). The collected membranes were resuspended in lysis buffer, divided in aliquots and stored with 10% glycerol at −80° C. until use.
Add 1 ml dioleoyl-sn-glycerol (10 mg/ml) to 10 ml of L-α-phosphatidylcholine (1 mg/ml) and 10 ml of L-α-phosphatidyl-L-serine (1 mg/ml) in a thick glass recipient. Evaporate under nitrogen and put on ice for 15 minutes. Reconstitute in 10 ml Tris/HCl (10 mM, pH 7.4) by sonication on ice. The sonification process consists of sonification cycles of 10 seconds in the sonification bath followed by 10 seconds cool down on ice and repeating this sonification cycle till a homogeneous solution is obtained (takes about 15 minutes). The thus obtained micelles are stored at −20° C. till later use and contain DAG at a final concentration of 1.61 mM.
• 50 mM Tris-HCl (pH 7.4), 150 mM MgCl2, 1 mM EDTA, 0.2% BSA. b) N-ethylmaleimide, 5M • Dissolve 5 g into a final volume of 8 ml DMSO 100% and store at −20° C. in aliquots till later use. c) Substrate mix (for 1 384 well plate=3840 μl) • 612 μl micelles stock (51 μM final) • 16.6 μl oleoylCoA 9.7 mM • 23 μl [^3H]-oleoylCoA (49 Ci/mmol, 500 μCi/ml) • 3188.4 μl Tris pH 7.4, 10 mM d) Enzyme mix (for 1 384 well plate=3520 μl) (5 μg/ml) • Add 11.73 μl of DGAT membrane stock (1500 μg/ml stock) to 3508 μl assay buffer. e) Stop mix (for 1 384 well plate=7.68 ml) (250 mM) • Add 384 μl of N-ethylmaleimide (5M) to 3.456 ml DMSO 100%, and further dilute 3.84 ml of said solution with 3.84 ml DMSO 10%. Method
DGAT activity in membrane preparations was assayed in 50 mM Tris-HCl (pH 7.4), 150 mM MgCl2, 1 mM EDTA and 0.2% BSA, containing 50 μM DAG, […] PC/PS and 8.4 μM [^3H]-oleoylCoA (at a specific activity of 30 nCi/well) in a final volume of 50 μl in 384-well format using the red shifted Basic Image FlashPlate™ (Perkin Elmer Cat. No. SMP400).
In detail, 10 μl enzyme mix and 10 μl substrate mix were added to 30 μl of assay buffer, optionally in the presence of 1 μl DMSO (blank and controls) or 1 μl of the compound to be tested. This reaction mixture was incubated for 120 minutes at 37° C. and the enzymatic reaction stopped by adding 20 μl of the stop mix. The plates were sealed and the vesicles allowed to settle overnight at room temperature. Plates were centrifuged for 5 minutes at 1500 rpm and measured in Leadseeker. […]

Row | SMILES | IC50 [nM]
1 | O=C(Nc1ccc(C2CCN(C(=O)Nc3c(F)cc(F)cc3Br)CC2)cc1)c1ccccc1-c1ccc(C(F)(F)F)cc1 [Compound 114] | 1230
2 | O=C(Nc1ccc(N2CCN(C(=O)Nc3c(Cl)cccc3Cl)CC2)cc1)c1ccccc1N1CCOCC1 [Compound 39] | 380
3 | O=C(Nc1ccc(N2CCN(C(=O)Nc3ccccc3F)CC2)cc1)c1ccccc1-c1ccc(C(F)(F)F)cc1 [Compound 90] | 2950
4 | O=C(Nc1ccc(N2CCN(C(=O)Nc3c(Cl)cccc3Cl)CC2)cc1)c1ccccc1-c1nnn[nH]1 [Compound 32] | 3310
5 | O=C(Nc1ccc(N2CCN(C(=O)Nc3c(Cl)cccc3Cl)CC2)cc1)c1cccc(-c2ccco2)c1 [Compound 14] | 0.977
6 | Cc1nc(-c2cccc(C(=O)Nc3ccc(N4CCN(C(=O)Nc5c(Cl)cccc5Cl)CC4)cc3)c2)cs1 [Compound 17] | 2.09
7 | CCc1cccc(C)c1NC(=O)N1CCC(c2ccc(NC(=O)c3ccccc3-c3ccc(C(F)(F)F)cc3)cc2)CC1 [Compound 110] | 955
8 | O=C(Nc1ccc(N2CCN(C(=O)Nc3c(Cl)cccc3Cl)CC2)cc1)c1ccc(-c2ccccn2)cc1 [Compound 126] | 9.55
9 | CC(C)c1ccccc1NC(=O)N1CCC(c2ccc(NC(=O)c3ccccc3-c3ccc(C(F)(F)F)cc3)cc2)CC1 [Compound 109] | 9550
10 | Cc1cc(C)n(-c2cccc(C(=O)Nc3ccc(N4CCN(C(=O)Nc5c(Cl)cccc5Cl)CC4)cc3)c2)n1 [Compound 28] | 5.01
11 | Cc1cccc(C)c1NC(=O)N1CCN(c2ccc(NC(=O)c3ccccc3-c3ccc(C(F)(F)F)cc3)cc2)CC1 [Compound 82] | 269
12 | O=C(Nc1ccc(C2CCN(C(=O)Nc3c(Cl)cccc3Cl)CC2)cc1)c1ccccc1-c1ccc(Cl)cc1 [Compound 57] | 646
13 | Cc1ccc2c(c1)C(=O)c1cc(C)cc(C(=O)Nc3ccc(N4CCN(C(=O)Nc5c(Cl)cccc5Cl)CC4)cc3)c1-2 [Compound 67] | 148
14 | O=C(Nc1ccc(N2CCN(C(=O)Nc3c(Cl)cccc3Cl)CC2)cc1)c1ccccc1-c1ccco1 [Compound 4] | 24.5
15 | Cc1cc(Br)cc(C)c1NC(=O)N1CCN(c2ccc(NC(=O)c3ccccc3-c3ccc(C(F)(F)F)cc3)cc2)CC1 [Compound 100] | 1550
16 | O=C(Nc1ccc(N2CCN(C(=O)Nc3c(Cl)cccc3Cl)CC2)cc1)c1cccc(N2CCS(=O)(=O)CC2)c1 [Compound 43] | 437
17 | CCC(C)c1ccccc1NC(=O)N1CCN(c2ccc(NC(=O)c3ccccc3-c3ccc(C(F)(F)F)cc3)cc2)CC1 (stereo not drawn) [Compound 79] | 6460
18 | CCc1cccc(C)c1NC(=O)N1CCN(c2ccc(NC(=O)c3ccccc3-c3ccc(C(F)(F)F)cc3)cc2)CC1 [Compound 83] | 1550
19 | CN(C)c1ccc(NC(=O)N2CCN(c3ccc(NC(=O)c4ccccc4-c4ccc(C(F)(F)F)cc4)cc3)CC2)cc1 [Compound 73] | 3550
20 | Cc1ccccc1NC(=O)N1CCC(c2ccc(NC(=O)c3ccccc3-c3ccc(C(F)(F)F)cc3)cc2)CC1 [Compound 7] | 3470
21 | O=C(Nc1ccc(N2CCN(C(=O)Nc3c(Cl)cccc3Cl)CC2)cc1)c1ccc(-n2cnnc2)cc1 [Compound 29] | 776

Row | SMILES | IC50 [nM]
22 | O=C(Nc1ccc(N2CCN(C(=O)Nc3c(Cl)cccc3Cl)CC2)cc1)c1cccc(N2CCOCC2)c1 [Compound 40] | 6.61
23 | Cc1cc(C)c(NC(=O)N2CCN(c3ccc(NC(=O)c4ccccc4-c4ccc(C(F)(F)F)cc4)cc3)CC2)c(Cl)c1 [Compound 102] | 170
24 | O=C(Nc1ccc(N2CCN(C(=O)Nc3c(Cl)cccc3Cl)CC2)cc1)c1cccc(N2CCCCC2)c1 [Compound 37] | 1.74
25 | CC(C)c1ccccc1NC(=O)N1CCN(c2ccc(NC(=O)c3ccccc3-c3ccc(C(F)(F)F)cc3)cc2)CC1 [Compound 77] | 4470
26 | O=C(Nc1ccc(N2CCN(C(=O)Nc3c(Cl)cccc3Cl)CC2)cc1)c1cccc(N2CCCC2=O)c1 [Compound 13] | 11
27 | COc1cccc(OC)c1NC(=O)N1CCN(c2ccc(NC(=O)c3ccccc3-c3ccc(C(F)(F)F)cc3)cc2)CC1 [Compound 84] | 5250
28 | O=C(Nc1ccc(C2CCN(C(=O)Nc3c(Cl)cccc3Cl)CC2)cc1)c1ccccc1-c1ccccc1 [Compound 56] | 331
29 | O=C(Nc1cccc(N2CCCC2)c1)c1ccc(N2CCN(C(=O)Nc3c(Cl)cc(CN4CCCC4)cc3Cl)CC2)cc1 [Compound 130] | 7.24
30 | CN1CC(C(=O)Nc2ccc(N3CCN(C(=O)Nc4c(Cl)cccc4Cl)CC3)cc2)CC1=O (stereo not drawn) [Compound 11] | 1120
31 | O=C(Nc1ccc(N2CCN(C(=O)Nc3c(Br)cc(Br)cc3Br)CC2)cc1)c1ccccc1-c1ccc(C(F)(F)F)cc1 [Compound 97] | 490
32 | O=C(Nc1ccc(N2CCN(C(=O)Nc3c(F)cc(Br)cc3F)CC2)cc1)c1ccccc1-c1ccc(C(F)(F)F)cc1 [Compound 98] | 2630
33 | Cc1cccc(Cl)c1NC(=O)N1CCN(c2ccc(NC(=O)c3ccccc3-c3ccc(C(F)(F)F)cc3)cc2)CC1 [Compound 94] | 148
34 | Cc1ccc2c(c1)C(=O)c1cc(C)cc(C(=O)Nc3ccc(C4CCN(C(=O)Nc5c(Cl)cccc5Cl)CC4)cc3)c1-2 [Compound 64] | 132
35 | Cc1ccc(C(=O)Nc2ccc(N3CCN(C(=O)Nc4c(Cl)cccc4Cl)CC3)cc2)c(-c2ccc(C(F)(F)F)cc2)c1 [Compound 66] | 58.9
36 | CN1CCN(c2ccc(C(=O)Nc3ccc(N4CCN(C(=O)Nc5c(Cl)cccc5Cl)CC4)cc3)cc2)CC1 [Compound 44] | 100
37 | Cc1nc(-c2ccc(C(=O)Nc3ccc(N4CCN(C(=O)Nc5c(Cl)cccc5Cl)CC4)cc3)cc2)no1 [Compound 30] | 4.47
38 | O=C(Nc1ccc(N2CCN(C(=O)Nc3ccccc3Cl)CC2)cc1)c1ccccc1-c1ccc(C(F)(F)F)cc1 [Compound 89] | 1700
39 | CC(C)(C)OC(=O)N1CC(C(=O)Nc2ccc(C3CCN(C(=O)Nc4c(Cl)cccc4Cl)CC3)cc2)C1 [Compound 1] | 8.13
40 | O=C(Nc1ccc(C2CCN(C(=O)Nc3c(Cl)cccc3Cl)CC2)cc1)C1CC(O)CN1 (stereo not drawn) [Compound 47] | 5370
41 | CC(C)(C)c1ccc(-c2ccccc2C(=O)Nc2ccc(C3CCN(C(=O)Nc4c(Cl)cccc4Cl)CC3)cc2)cc1 [Compound 62] | 550
42 | O=C(O)c1cccc(C(=O)Nc2ccc(N3CCN(C(=O)Cc4c(Cl)cc(CN5CCCC5)cc4Cl)CC3)cc2)c1 [Compound 146] | 3390
